Data taken from paper PMC12587574, “Mass balance, pharmacokinetics, metabolism, and excretion of radiolabeled acoziborole, a potential novel treatment for human African trypanosomiasis, following single microtracer oral dose to humans” (Antimicrobial Agents and Chemotherapy, 2025).

Experiments:
[1] = Safety and tolerability assessment, phase I mass balance study; format: in vivo, human
Description: Safety was assessed by adverse event (AE) reports and at specific times during the physical examination, vital signs, 12-lead ECGs, and laboratory evaluations (see Supplementary Information section 2). AEs were all recorded from the time participants signed the consent form until the follow-up call, 5–10 days after final study discharge, and were evaluated for type, severity, frequency of AEs, and relationship to the IP.

CYP2C8 = target: T1, CYP2C8 (Homo sapiens, UniProt P10632); assay: Incubation with CYP450 recombinant enzymes (Bactosomes) and NADPH; format: in vitro ADME; conditions: 1 µM
T1 construct: purchased
T1 sequence (P10632 1-490): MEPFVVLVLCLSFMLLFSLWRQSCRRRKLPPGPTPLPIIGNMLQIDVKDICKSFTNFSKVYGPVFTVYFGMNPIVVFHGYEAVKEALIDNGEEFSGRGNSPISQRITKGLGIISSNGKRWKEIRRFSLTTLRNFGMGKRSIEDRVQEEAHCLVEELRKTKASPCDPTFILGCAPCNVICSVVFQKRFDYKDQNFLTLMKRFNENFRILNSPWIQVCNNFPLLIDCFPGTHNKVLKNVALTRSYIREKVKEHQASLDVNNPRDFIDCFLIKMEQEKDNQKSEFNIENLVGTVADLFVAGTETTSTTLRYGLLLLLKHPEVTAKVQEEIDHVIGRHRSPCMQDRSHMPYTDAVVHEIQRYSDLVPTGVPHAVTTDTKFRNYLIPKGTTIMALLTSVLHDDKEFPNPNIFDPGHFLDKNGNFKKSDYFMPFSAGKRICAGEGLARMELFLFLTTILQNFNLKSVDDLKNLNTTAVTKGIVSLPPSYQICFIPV

SMILES: CC1(C)OB(O)c2cc(NC(=O)c3ccc(F)cc3C(F)(F)F)ccc21 [acoziborole]
- overall tolerability ([1]; 960 mg single oral dose, N = 6): well-tolerated overall
- Balanitis candida, participants ([1]; Day 1, N = 6): 0 (0.0) 0 (0.0) n (%)
- Blood glucose increased, participants ([1]; Day 1, N = 6): 0 (0.0) 0 (0.0) n (%)
- Gastrointestinal disorders (system organ class), events ([1]; Day 1, N = 6): 0
- Gastrointestinal disorders (system organ class), participants ([1]; Day 1, N = 6): 0 (0.0) n (%)
- Headache, events ([1]; Day 1, N = 6): 2
- Headache, participants ([1]; Day 1, N = 6): 2 (33.3) n (%)
- Infections and infestation (system organ class), events ([1]; Day 1, N = 6): 0
- Infections and infestation (system organ class), participants ([1]; Day 1, N = 6): 0 (0.0) n (%)
- Injury, poisoning and procedural complications (system organ class), events ([1]; Day 1, N = 6): 0
- Injury, poisoning and procedural complications (system organ class), participants ([1]; Day 1, N = 6): 0 (0.0) n (%)
- Investigations (system organ class), events ([1]; Day 1, N = 6): 0
- Investigations (system organ class), participants ([1]; Day 1, N = 6): 0 (0.0) n (%)
- Myalgia, events ([1]; Day 1, N = 6): 0
- Myalgia, participants ([1]; Day 1, N = 6): 0 (0.0) n (%)
- Nervous system disorders (system organ class), events ([1]; Day 1, N = 6): 2
- Nervous system disorders (system organ class), participants ([1]; Day 1, N = 6): 2 (33.3) n (%)
- Phosphokinase increased, participants ([1]; Day 1, N = 6): 0 (0.0) 0 (0.0) n (%)
- Rhinitis, participants ([1]; Day 1, N = 6): 0 (0.0) 0 (0.0) n (%)
- Skin laceration, events ([1]; Day 1, N = 6): 0
- Skin laceration, participants ([1]; Day 1, N = 6): 0 (0.0) n (%)
- Surgical and medical procedures (system organ class), events ([1]; Day 1, N = 6): 0
- Surgical and medical procedures (system organ class), participants ([1]; Day 1, N = 6): 0 (0.0) n (%)
- TEAEs, events ([1]; Day 1, N = 6): 2
- TEAEs, participants ([1]; Day 1, N = 6): 2 (33.3) n (%)
- Tooth repair, events ([1]; Day 1, N = 6): 0
- Tooth repair, participants ([1]; Day 1, N = 6): 0 (0.0) n (%)
- Toothache, events ([1]; Day 1, N = 6): 0
- Toothache, participants ([1]; Day 1, N = 6): 0 (0.0) n (%)
- Balanitis candida, events ([1]; Day 2 to Day 15, N = 6): 2
- Balanitis candida, participants ([1]; Day 2 to Day 15, N = 6): 1 (16.7) n (%)
- Blood glucose increased, events ([1]; Day 2 to Day 15, N = 6): 0
- Blood glucose increased, participants ([1]; Day 2 to Day 15, N = 6): 0 (0.0) n (%)
- Gastrointestinal disorders (system organ class), events ([1]; Day 2 to Day 15, N = 6): 1
- Gastrointestinal disorders (system organ class), participants ([1]; Day 2 to Day 15, N = 6): 1 (16.7) n (%)
- Headache, events ([1]; Day 2 to Day 15, N = 6): 1
- Headache, participants ([1]; Day 2 to Day 15, N = 6): 1 (16.7) n (%)
- Infections and infestation (system organ class), events ([1]; Day 2 to Day 15, N = 6): 2
- Infections and infestation (system organ class), participants ([1]; Day 2 to Day 15, N = 6): 1 (16.7) n (%)
- Injury, poisoning and procedural complications (system organ class), events ([1]; Day 2 to Day 15, N = 6): 0
- Injury, poisoning and procedural complications (system organ class), participants ([1]; Day 2 to Day 15, N = 6): 0 (0.0) n (%)
- Investigations (system organ class), events ([1]; Day 2 to Day 15, N = 6): 1
- Investigations (system organ class), participants ([1]; Day 2 to Day 15, N = 6): 1 (16.7) n (%)
- Myalgia, events ([1]; Day 2 to Day 15, N = 6): 0
- Myalgia, participants ([1]; Day 2 to Day 15, N = 6): 0 (0.0) n (%)
- Nervous system disorders (system organ class), events ([1]; Day 2 to Day 15, N = 6): 1
- Nervous system disorders (system organ class), participants ([1]; Day 2 to Day 15, N = 6): 1 (16.7) n (%)
- Phosphokinase increased, events ([1]; Day 2 to Day 15, N = 6): 1
- Phosphokinase increased, participants ([1]; Day 2 to Day 15, N = 6): 1 (16.7) n (%)
- Rhinitis, events ([1]; Day 2 to Day 15, N = 6): 0
- Rhinitis, participants ([1]; Day 2 to Day 15, N = 6): 0 (0.0) n (%)
- Skin laceration, events ([1]; Day 2 to Day 15, N = 6): 0
- Skin laceration, participants ([1]; Day 2 to Day 15, N = 6): 0 (0.0) n (%)
- Surgical and medical procedures (system organ class), events ([1]; Day 2 to Day 15, N = 6): 1
- Surgical and medical procedures (system organ class), participants ([1]; Day 2 to Day 15, N = 6): 1 (16.7) n (%)
- TEAEs, events ([1]; Day 2 to Day 15, N = 6): 6
- TEAEs, participants ([1]; Day 2 to Day 15, N = 6): 4 (66.7) n (%)
- Tooth repair, events ([1]; Day 2 to Day 15, N = 6): 1
- Tooth repair, participants ([1]; Day 2 to Day 15, N = 6): 1 (16.7) n (%)
- Toothache, events ([1]; Day 2 to Day 15, N = 6): 1
- Toothache, participants ([1]; Day 2 to Day 15, N = 6): 1 (16.7) n (%)
- Balanitis candida, events ([1]; Day 16 to end of study, N = 6): 0
- Balanitis candida, participants ([1]; Day 16 to end of study, N = 6): 0 (0.0) n (%)
- Blood glucose increased, events ([1]; Day 16 to end of study, N = 6): 1
- Blood glucose increased, participants ([1]; Day 16 to end of study, N = 6): 1 (16.7) n (%)
- Gastrointestinal disorders (system organ class), events ([1]; Day 16 to end of study, N = 6): 0
- Gastrointestinal disorders (system organ class), participants ([1]; Day 16 to end of study, N = 6): 0 (0.0) n (%)
- Headache, events ([1]; Day 16 to end of study, N = 6): 1
- Headache, participants ([1]; Day 16 to end of study, N = 6): 1 (16.7) n (%)
- Infections and infestation (system organ class), events ([1]; Day 16 to end of study, N = 6): 1
- Infections and infestation (system organ class), participants ([1]; Day 16 to end of study, N = 6): 1 (16.7) n (%)
- Injury, poisoning and procedural complications (system organ class), events ([1]; Day 16 to end of study, N = 6): 1
- Injury, poisoning and procedural complications (system organ class), participants ([1]; Day 16 to end of study, N = 6): 1 (16.7) n (%)
- Investigations (system organ class), events ([1]; Day 16 to end of study, N = 6): 1
- Investigations (system organ class), participants ([1]; Day 16 to end of study, N = 6): 1 (16.7) n (%)
- Myalgia, events ([1]; Day 16 to end of study, N = 6): 1
- Myalgia, participants ([1]; Day 16 to end of study, N = 6): 1 (16.7) n (%)
- Nervous system disorders (system organ class), events ([1]; Day 16 to end of study, N = 6): 1
- Nervous system disorders (system organ class), participants ([1]; Day 16 to end of study, N = 6): 1 (16.7) n (%)
- Phosphokinase increased, events ([1]; Day 16 to end of study, N = 6): 0
- Phosphokinase increased, participants ([1]; Day 16 to end of study, N = 6): 0 (0.0) n (%)
- Rhinitis, events ([1]; Day 16 to end of study, N = 6): 1
- Rhinitis, participants ([1]; Day 16 to end of study, N = 6): 1 (16.7) n (%)
- Skin laceration, events ([1]; Day 16 to end of study, N = 6): 1
- Skin laceration, participants ([1]; Day 16 to end of study, N = 6): 1 (16.7) n (%)
- Surgical and medical procedures (system organ class), events ([1]; Day 16 to end of study, N = 6): 0
- Surgical and medical procedures (system organ class), participants ([1]; Day 16 to end of study, N = 6): 0 (0.0) n (%)
- TEAEs, events ([1]; Day 16 to end of study, N = 6): 5
- TEAEs, participants ([1]; Day 16 to end of study, N = 6): 3 (50.0) n (%)
- Tooth repair, events ([1]; Day 16 to end of study, N = 6): 0
- Tooth repair, participants ([1]; Day 16 to end of study, N = 6): 0 (0.0) n (%)
- Toothache, events ([1]; Day 16 to end of study, N = 6): 0
- Toothache, participants ([1]; Day 16 to end of study, N = 6): 0 (0.0) n (%)
- TEAEs not considered related to the IP ([1]; N = 6): 10/13
- changes in ECG parameters, vital signs, or physical examination post-dose ([1]; N = 6): no significant changes
- deaths, serious AEs, discontinuations due to AE ([1]; N = 6): no deaths, serious AEs, or participant discontinuations due to any AE
- mean laboratory testing results (blood chemistry, hematology, urinalysis) ([1]; N = 6): within acceptable range or considered non-clinically significant
- severity of reported TEAEs ([1]; N = 6): mild or moderate
- Musculoskeletal and connective tissue disorders (system organ class), events ([1]; human, in vivo, 1 day): 0
- Musculoskeletal and connective tissue disorders (system organ class), participants ([1]; human, in vivo, 1 day): 0 (0.0) n (%)
- treatment-emergent AEs, total number ([1]; in the six participants): 13
- metabolism by recombinant CYP2C8 (CYP2C8): metabolized by
